# Numbered stars: 1 amine (or outer) side, 2 acyl side, 3 side chain; on linkers, the order of the positions; unused ones are H or OH. Square brackets hold non-standard residues; d marks the D form. Peptide text beside a SMILES is read from it. * marks the point of attachment. Pro(cis-4-CF3) = O=C(O)[C@@H]1C[C@H](C(F)(F)F)CN1; Pro(trans-4-F) = O=C(O)[C@@H]1C[C@@H](F)CN1; Pro(cis-4-F) = O=C(O)[C@@H]1C[C@H](F)CN1; Pro(4,4-F2) = O=C(O)[C@@H]1CC(F)(F)CN1; Dab(3S-OH) = NC[C@H](O)[C@H](N)C(=O)O; X4 = N=C(N)NCC/C=C(/N[*:1])C(=O)[*:2]; Ethylenediamine = C(CN[*:2])N[*:1]; ΔZArg = N=C(N)NCC/C=C(\N)C(=O)O; NMeK = CN[C@@H](CCCCN)C(=O)O; dOrn = NCCC[C@@H](N)C(=O)O; Pip = O=C(O)[C@@H]1CCCCN1; Dab = NCC[C@H](N)C(=O)O; NH(CH2)5NH2 = NCCCCCN*; NH(CH2)4NH2 = NCCCCN*; NHOH = ON*
# How the values were obtained:
# Assay in all cases: MIC, broth microdilution (CLSI), reference strain
# Settings in all cases: CAMHB
# [1] = system: Pseudomonas aeruginosa ATCC 27853
# [2] = system: Escherichia coli ATCC 25922
# [3] = system: Staphylococcus aureus ATCC 13709
# [4] = system: Acinetobacter baumannii ATCC 19606
Structure (SMILES),Pa: MIC Pseudomonas aeruginosa ATCC 27853 [1],Ec: MIC Escherichia coli ATCC 25922 [2],Sa: MIC Staphylococcus aureus ATCC 13709 [3],Ab: MIC Acinetobacter baumannii ATCC 19606 [4]
N=C(N)NCC/C=C(\NC(=O)[C@H](CCCCN)NC(=O)[C@H](Cc1cnc[nH]1)NC(=O)[C@@H]1CCCN1C(=O)[C@@H](CCCN)NC(=O)CNC(=O)[C@H](CCN)NC(=O)[C@H](CCN)NC(=O)[C@@H](N)CCCCN)C(=O)N[C@@H](CCCCN)C(=O)NCCCCN [11.1] (H-K[Dab][Dab]G[dOrn]PHK[ΔZArg]K-{NH(CH2)4NH2}),− (>32 μg/mL),− (>32 μg/mL),++ (≤8 μg/mL),− (>32 μg/mL)
N=C(N)NCC/C=C(\NC(=O)[C@H](CCCCN)NC(=O)[C@H](Cc1cnc[nH]1)NC(=O)[C@@H]1CCCN1C(=O)[C@@H](CCCN)NC(=O)CNC(=O)[C@@H](NC(=O)[C@H](CCN)NC(=O)[C@@H](N)CCCCN)[C@@H](O)CN)C(=O)N[C@@H](CCCCN)C(=O)NCCCCN [12.1] (H-K[Dab][Dab(3S-OH)]G[dOrn]PHK[ΔZArg]K-{NH(CH2)4NH2}),− (>32 μg/mL),− (>32 μg/mL),++ (≤8 μg/mL),− (>32 μg/mL)
N=C(N)NCC/C=C(\NC(=O)[C@H](CCCCN)NC(=O)[C@H](Cc1cnc[nH]1)NC(=O)[C@@H]1CCCN1C(=O)[C@@H](CCCN)NC(=O)CNC(=O)CNC(=O)[C@H](CCN)NC(=O)[C@@H](N)CCCCN)C(=O)N[C@@H](CCCCN)C(=O)NCCCCN [13.1] (H-K[Dab]GG[dOrn]PHK[ΔZArg]K-{NH(CH2)4NH2}),− (>32 μg/mL),− (>32 μg/mL),+ (≤32 μg/mL),− (>32 μg/mL)
C[C@H](NC(=O)[C@H](CCN)NC(=O)[C@@H](N)CCCCN)C(=O)NCC(=O)N[C@H](CCCN)C(=O)N1CCC[C@H]1C(=O)N[C@@H](Cc1cnc[nH]1)C(=O)N[C@@H](CCCCN)C(=O)N/C(=C/CCNC(=N)N)C(=O)N[C@@H](CCCCN)C(=O)NCCCCN [14.1] (H-K[Dab]AG[dOrn]PHK[X4]K-{NH(CH2)4NH2}),− (>32 μg/mL),+ (≤32 μg/mL),++ (≤8 μg/mL),− (>32 μg/mL)
C[C@H](NC(=O)[C@H](CCN)NC(=O)[C@@H](N)CCCCN)C(=O)NCC(=O)N[C@H](CCCN)C(=O)N1CCC[C@H]1C(=O)N[C@@H](Cc1cnc[nH]1)C(=O)N[C@@H](CCCCN)C(=O)N/C(=C\CCNC(=N)N)C(=O)N[C@@H](CCCCN)C(=O)NCCCCN [14.2] (H-K[Dab]AG[dOrn]PHK[ΔZArg]K-{NH(CH2)4NH2}),− (>32 μg/mL),+ (≤32 μg/mL),++ (≤8 μg/mL),− (>32 μg/mL)
C[C@H](NC(=O)[C@H](CCN)NC(=O)[C@@H](N)CCCCN)C(=O)NCC(=O)N[C@H](CCCN)C(=O)N1C[C@@H](F)C[C@H]1C(=O)N[C@@H](Cc1cnc[nH]1)C(=O)N[C@@H](CCCCN)C(=O)N/C(=C\CCNC(=N)N)C(=O)N[C@@H](CCCCN)C(=O)NCCCCN [14.4] (H-K[Dab]AG[dOrn][Pro(cis-4-F)]HK[ΔZArg]K-{NH(CH2)4NH2}),− (>32 μg/mL),− (>32 μg/mL),++ (≤8 μg/mL),− (>32 μg/mL)
C[C@H](NC(=O)[C@H](CCN)NC(=O)[C@@H](N)CCCCN)C(=O)NCC(=O)N[C@H](CCCN)C(=O)N1CCC[C@H]1C(=O)N[C@@H](Cc1cnc[nH]1)C(=O)N[C@@H](CCCCN)C(=O)N/C(=C\CCNC(=N)N)C(=O)N[C@@H](CCCCN)C(=O)NCCCCCN [14.5] (H-K[Dab]AG[dOrn]PHK[ΔZArg]K-{NH(CH2)5NH2}),− (>32 μg/mL),+ (≤32 μg/mL),++ (≤8 μg/mL),− (>32 μg/mL)
C[C@H](NC(=O)[C@H](CCN)NC(=O)[C@@H](N)CCCCN)C(=O)NCC(=O)N[C@H](CCCN)C(=O)N1CCC[C@H]1C(=O)N[C@@H](Cc1cnc[nH]1)C(=O)N[C@@H](CCCCN)C(=O)N/C(=C\CCNC(=N)N)C(=O)N[C@@H](CCCCN)C(=O)NCCN [14.6] (H-K[Dab]AG[dOrn]PHK[ΔZArg]K-Ethylenediamine),− (>32 μg/mL),+ (≤32 μg/mL),++ (≤8 μg/mL),− (>32 μg/mL)
C[C@H](NC(=O)[C@H](CCN)NC(=O)[C@@H](N)CCCCN)C(=O)NCC(=O)N[C@H](CCCN)C(=O)N1C[C@H](F)C[C@H]1C(=O)N[C@@H](Cc1cnc[nH]1)C(=O)N[C@@H](CCCCN)C(=O)N/C(=C\CCNC(=N)N)C(=O)N[C@@H](CCCCN)C(=O)NCCCCN [14.7] (H-K[Dab]AG[dOrn][Pro(trans-4-F)]HK[ΔZArg]K-{NH(CH2)4NH2}),− (>32 μg/mL),− (>32 μg/mL),++ (≤8 μg/mL),− (>32 μg/mL)
CN[C@@H](CCCCN)C(=O)N[C@@H](CCN)C(=O)N[C@@H](C)C(=O)NCC(=O)N[C@H](CCCN)C(=O)N1CCC[C@H]1C(=O)N[C@@H](Cc1cnc[nH]1)C(=O)N[C@@H](CCCCN)C(=O)N/C(=C\CCNC(=N)N)C(=O)N[C@@H](CCCCN)C(=O)NCCCCN [14.9] (H-[NMeK][Dab]AG[dOrn]PHK[ΔZArg]K-{NH(CH2)4NH2}),− (>32 μg/mL),− (>32 μg/mL),++ (≤8 μg/mL),− (>32 μg/mL)
"C[C@H](NC(=O)[C@H](CCN)NC(=O)[C@@H](N)CCCCN)C(=O)NCC(=O)N[C@H](CCCN)C(=O)N1CC(F)(F)C[C@H]1C(=O)N[C@@H](Cc1cnc[nH]1)C(=O)N[C@@H](CCCCN)C(=O)N/C(=C\CCNC(=N)N)C(=O)N[C@@H](CCCCN)C(=O)NCCCCN [14.10] (H-K[Dab]AG[dOrn][Pro(4,4-F2)]HK[ΔZArg]K-{NH(CH2)4NH2})",− (>32 μg/mL),− (>32 μg/mL),++ (≤8 μg/mL),− (>32 μg/mL)

# Now from value to compound:
Pa: MIC Pseudomonas aeruginosa ATCC 27853 [1],Ec: MIC Escherichia coli ATCC 25922 [2],Sa: MIC Staphylococcus aureus ATCC 13709 [3],Ab: MIC Acinetobacter baumannii ATCC 19606 [4],Structure (SMILES)
− (>32 μg/mL),− (>32 μg/mL),++ (≤8 μg/mL),− (>32 μg/mL),C[C@H](NC(=O)[C@H](CCN)NC(=O)[C@@H](N)CCCCN)C(=O)NCC(=O)N[C@H](CCCN)C(=O)N1CCC[C@H]1C(=O)N[C@@H](Cc1cnc[nH]1)C(=O)N[C@@H](CCCCN)C(=O)N/C(=C\CCNC(=N)N)C(=O)N[C@H](CCCCN)C(=O)NCCCCN [14.11] (H-K[Dab]AG[dOrn]PHK[ΔZArg][dK]-{NH(CH2)4NH2})
− (>32 μg/mL),+ (≤32 μg/mL),++ (≤8 μg/mL),− (>32 μg/mL),C[C@H](NC(=O)[C@H](CCN)NC(=O)[C@@H](N)CCCCN)C(=O)NCC(=O)N[C@H](CCCN)C(=O)N1CCC[C@H]1C(=O)N[C@@H](Cc1cnc[nH]1)C(=O)N[C@@H](CCCCN)C(=O)N/C(=C\CCNC(=N)N)C(=O)N[C@@H](CCCCN)C(N)=O [14.12] (H-K[Dab]AG[dOrn]PHK[ΔZArg]K-NH2)
− (>32 μg/mL),+ (≤32 μg/mL),++ (≤8 μg/mL),− (>32 μg/mL),C[C@H](NC(=O)[C@H](CCN)NC(=O)[C@@H](N)CCCCN)C(=O)NCC(=O)N[C@H](CCCN)C(=O)N1CCCC[C@H]1C(=O)N[C@@H](Cc1cnc[nH]1)C(=O)N[C@@H](CCCCN)C(=O)N/C(=C\CCNC(=N)N)C(=O)N[C@@H](CCCCN)C(=O)NCCCCN [14.13] (H-K[Dab]AG[dOrn][Pip]HK[ΔZArg]K-{NH(CH2)4NH2})
− (>32 μg/mL),− (>32 μg/mL),++ (≤8 μg/mL),− (>32 μg/mL),C[C@H](NC(=O)[C@H](CCN)NC(=O)[C@@H](N)CCCCN)C(=O)NCC(=O)N[C@H](CCCN)C(=O)N1CCC[C@H]1C(=O)N[C@@H](Cc1cnc[nH]1)C(=O)N[C@@H](CCCCN)C(=O)N/C(=C\CCNC(=N)N)C(=O)N[C@@H](CCCCN)C(=O)NO [14.14] (H-K[Dab]AG[dOrn]PHK[ΔZArg]K-{NHOH})
− (>32 μg/mL),− (>32 μg/mL),++ (≤8 μg/mL),− (>32 μg/mL),C[C@H](NC(=O)[C@H](CCN)NC(=O)[C@@H](N)CCCCN)C(=O)NCC(=O)N[C@H](CCCN)C(=O)N1C[C@@H](C(F)(F)F)C[C@H]1C(=O)N[C@@H](Cc1cnc[nH]1)C(=O)N[C@@H](CCCCN)C(=O)N/C(=C\CCNC(=N)N)C(=O)N[C@@H](CCCCN)C(=O)NCCCCN [14.15] (H-K[Dab]AG[dOrn][Pro(cis-4-CF3)]HK[ΔZArg]K-{NH(CH2)4NH2})
− (>32 μg/mL),–,–,− (>32 μg/mL),C[C@H](NC(=O)[C@@H](NC(=O)[C@@H](N)CCCCN)[C@@H](O)CN)C(=O)NCC(=O)N[C@H](CCCN)C(=O)N1CCC[C@H]1C(=O)N[C@@H](Cc1cnc[nH]1)C(=O)N[C@@H](CCCCN)C(=O)N/C(=C\CCNC(=N)N)C(N)=O [24.5] (H-K[Dab(3S-OH)]AG[dOrn]PHK[ΔZArg]-NH2)
–,++ (≤8 μg/mL),++ (≤8 μg/mL),–,C[C@H](NC(=O)[C@@H](NC(=O)[C@@H](N)CCCCN)[C@@H](O)CN)C(=O)NCC(=O)N[C@H](CCCN)C(=O)N1CCC[C@H]1C(=O)N[C@@H](Cc1cnc[nH]1)C(=O)N[C@@H](CCCCN)C(=O)N/C(=C\CCNC(=N)N)C(N)=O [24.125] (H-K[Dab(3S-OH)]AG[dOrn]PHK[ΔZArg]-NH2)

# — patent US10626144B2, “Peptide derivatives and uses thereof” (Nosopharm, priority 2014, dated 2020)
